In patent US12396961B2, “Compounds and compositions for intracellular delivery of agents” (ModernaTX, Inc., priority 2015, dated 2025):

Legend:
[1] = Particle size and polydispersity index (Zetasizer Nano ZS); format: physicochemical; settings: Table 1; for PDI: DOPE 40:20:38.5:1.5, Luc mRNA
Excerpt: Nanoparticle compositions may be characterized by a variety of methods. For example, microscopy (e.g., transmission electron microscopy or scanning electron microscopy) may be used to examine the morphology and size distribution of a nanoparticle composition. Dynamic light scattering or potentiometry (e.g., potentiometric titrations) may be used to measure zeta potentials. Dynamic light scattering may also be utilized to determine particle sizes. Instruments such as the Zetasizer Nano ZS (Malvern Instruments Ltd, Malvern, Worcestershire, UK) may also be used to measure multiple characteristics of a nanoparticle composition, such as particle size, polydispersity index, and zeta potential.
A Zetasizer Nano ZS (Malvern Instruments Ltd, Malvern, Worcestershire, UK) can be used to determine the particle size, the polydispersity index (PDI) and the zeta potential of the nanoparticle compositions in 1×PBS in determining particle size and 15 mM PBS in determining zeta potential.

[2] = tested on: luciferase (Luc) mRNA expression; test: Luc expression (AUC) in CD-1 mice relative to MC3; format: in vivo; settings: for Lipid/MC3 Luc CD-1 (mice): Luc expression relative to MC3, CD-1 mice; for Liver/Spleen Ratio / Lipid/MC3 AUC: Table 7c; for Lipid/MC3 AUC: AUC relative to MC3
Protocol: FIG. 15 is a graph summarizing luciferase expression levels at 6 h after administration of nanoparticle compositions containing compounds of the disclosure to CD-1 mice at a dose of 0.5 mpk. Total light flux values were acquired via body luminescent imaging (BLI) 6 h after administration. In this Figure, the numbers 1-7 and 10 refer to the compositions containing Compounds 4-10 and MC3 respectively.
In contrast, hEPO expression in rats induced by administration of nanoparticle composition including compound according to one of formulae (I), (Ia1)-(Ia6), (Ib), (II), (IIa), (III), and (IIIa) was substantially lower than that measured for MC3. […] Table 7c and 7d show additional protein expressions and clearance data from compositions with various compounds disclosed herein as compared to with MC3.

hEPO mRNA expression = test: Expression of hEPO in mice (CD-1); format: in vivo, CD-1 mice; settings: Table 7e; hEPO expression, CD-1 mice, 0.5 mpk
Excerpt: FIG. 12 is a set of graphs illustrating hEPO expression levels in CD-1 mice dosed with compounds of the disclosure, compared to MC3. PBS is used as control. […] In graphs A-C numbers 1-14 refer to compositions containing the following: 1: Compound 73, 2: Compound 80, 3: Compound 70; 4: Compound 81; 5: Compound 69; 6: Compound 82; 7: Compound 83; 8: Compound 62; 9: Compound 84; 10: Compound 85; 11: Compound 86; 12: Compound 87; 13: MC3; 14: PBS.
FIG. 13 is a graph showing hEPO levels (pg/mL) in CD-1 mice up to −25 h after administration of a nanoparticle composition containing compounds of the disclosure, compared to a composition containing MC3. Numbers 1-13 refer to compositions containing the following: 1: Compound 73, 2: Compound 80, 3: Compound 70; 4: Compound 81; 5: Compound 69; 6: Compound 82; 7: Compound 83; 8: Compound 62; 9: Compound 84; 10: Compound 85; 11: Compound 86; 12: Compound 87; 13: MC3. […]

| PDI [1] | Compound | Lipid/MC3 Luc CD-1 (mice) [2] | Lipid/MC3 AUC (hEPO mRNA expression) | further results |
| --- | --- | --- | --- | --- |
| 0.190 | CCCCCCCCCN(CCCCCCCCC)CCN(CCCCCCCCC)CCC1CCN(C(=O)CN(CCCCCCCCC)CCCCCCCCC)CC1 [Compound 50, 2-(Dinonylamino)-1-(4-(2-((2-(dinonylamino)ethyl)(nonyl)amino)ethyl)piperidin-1-yl)ethan-1-one] | 0.01 | – | – |
| – | CCCCCCCCCN(CCCCCCCCC)CCC1CCCN(C(=O)CN(CCCCCCCCC)CCN(CCCCCCCCC)CCCCCCCCC)C1 (stereo not shown) [Compound 73, 2-((2-(Dinonylamino)ethyl)(nonyl)amino)-1-(3-(2-(dinonylamino)ethyl)piperidin-1-yl)ethan-1-one] | – | 3.93 | – |
| – | CCCCCCCCCN(CCCC(=O)OCCCCC)CCC1CCN(C(=O)CN(CCCCCCCCC)CCN(CCCCCCCCC)CCCCCCCCC)CC1 [Compound 83, Pentyl 4-((2-(1-(N-(2-(dinonylamino)ethyl)-N-nonylglycyl)piperidin-4-yl)ethyl)(nonyl)amino)butanoate] | – | 1.46 | – |
| – | CCCCCCCCCN(CCCOC(=O)CCCCC)CCC(=O)N1CCN(C(=O)CCN(CCCCCCCCC)CCN(CCCCCCCCC)CCCCCCCCC)CC1 [Compound 86, 3-((3-(4-(3-((2-(Dinonylamino)ethyl)(nonyl)amino)propanoyl)piperazin-1-yl)-3-oxopropyl)(nonyl)amino)propyl Hexanoate] | – | 0.49 | – |
| 0.220 | CCCCCCCCCCCCN(CCCCCCCCCCCC)CCN(CCCCCCCCCCCC)CC(=O)N1CC2CC1CN2C(=O)CN(CCCCCCCCC)CCCCCCCCC (stereo not shown) [Compound 43, 2-((2-(Didodecylamino)ethyl)(dodecyl)amino)-1-(5-(dinonylglycyl)-2,5-diazabicyclo[2.2.1]heptan-2-yl)ethan-1-one] | 0.34 | – | Size (nm) ([1]; lipid:DOPE:Chol:PEG-DMG 40:20:38.5:1.5, Luc mRNA, MC3 standard formulation): 99.0 nm |
| – | CCCCCCCCCN(CCCCCCCCC)CCC1CCN(C(=O)CN(CCCCCCCCC)CCN(CCCCCCCCC)CCCCCCCCC)C1 (stereo not shown) [Compound 69, 2-((2-(Dinonylamino)ethyl)(nonyl)amino)-1-(3-(2-(dinonylamino)ethyl)pyrrolidin-1-yl)ethan-1-one] | – | 6.52 | – |
| 0.160 | CCCCCCCCCN(CCCCCCCC(=O)OC)CCN(CCCCCCCCC)CC(=O)N1CCN(C(=O)CN(CCCCCCCCC)CCCCCCCCC)CC1 [Compound 46, Methyl 8-((2-((2-(4-(dinonylglycyl)piperazin-1-yl)-2-oxoethyl)(nonyl)amino)ethyl)(nonyl)amino)octanoate] | 0.46 | – | – |
| – | CCCCCCCCCN(CCCC(=O)OCCCCC)CCN(CCCCCCCCC)CC(=O)N1CCN(C(=O)CN(CCCCCCCCC)CCCC(=O)OCCCCC)CC1 [Compound 71, Pentyl 4-(nonyl(2-(4-(N-nonyl-N-(2-(nonyl(4-oxo-4-(pentyloxy)butyl)amino)ethyl)glycyl)piperazin-1-yl)-2-oxoethyl)amino)butanoate] | – | – | Liver/Spleen Ratio [2]: 25; Lipid/MC3 AUC [2]: 1.25 |
| – | CCCCCCCCCN(CCCC(=O)OCCCCC)CCCC1CCN(C(=O)CCN(CCCCCCCCC)CCN(CCCCCCCCC)CCCCCCCCC)CC1 [Compound 84, Pentyl 4-((3-(1-(3-((2-(dinonylamino)ethyl)(nonyl)amino)propanoyl)piperidin-4-yl)propyl)(nonyl)amino)butanoate] | – | 1.43 | – |
| – | CCCCCCCCCN(CCCCCCCCC)CCN(CCCCCCCCC)CC(=O)N1CCC(CN(CCCCCCCCC)CCCC(=O)OCCCCC)C1 (stereo not shown) [Compound 82, Pentyl 4-(((1-(N-(2-(dinonylamino)ethyl)-N-nonylglycyl)pyrrolidin-3-yl)methyl)(nonyl)amino)butanoate] | – | 3.62 | – |
| – | CCCCCCCCCN(CCCC(=O)OCCCCC)CCC1CCN(C(=O)CN(CCCCCCCCC)CCN(CCCCCCCCC)CCCCCCCCC)C1 (stereo not shown) [Compound 81, Pentyl 4-((2-(1-(N-(2-(dinonylamino)ethyl)-N-nonylglycyl)pyrrolidin-3-yl)ethyl)(nonyl)amino)butanoate] | – | 3.01 | – |
| 0.180 | CCCCCCCCCN(CCCCCCCCC)CCN(CCCCCCCC(=O)OC)CC(=O)N1CCN(C(=O)CN(CCCCCCCCC)CCCCCCCCC)CC1 [Compound 47, Methyl 8-((2-(dinonylamino)ethyl)(2-(4-(dinonylglycyl)piperazin-1-yl)-2-oxoethyl)amino)octanoate] | 0.22 | – | – |
| – | CCCCCCCCCN(CCCCCCCCC)CCN(CCCCCCCCC)CC(=O)N1CCN(C(=O)CN(CCCCCCCCC)CCCCCC(=O)OCCC)CC1 [Compound 54, Propyl 6-((2-(4-(N-(2-(dinonylamino)ethyl)-N-nonylglycyl)piperazin-1-yl)-2-oxoethyl)(nonyl)amino)hexanoate] | – | – | Liver/Spleen Ratio [2]: 32; Lipid/MC3 AUC [2]: 0.13 |
| – | CCCCCCCCCN(CCCCCCCCC)CCCC1CCN(C(=O)CCN(CCCCCCCCC)CCN(CCCCCCCCC)CCCCCCCCC)CC1 [Compound 85, 3-((2-(Dinonylamino)ethyl)(nonyl)amino)-1-(4-(3-(dinonylamino)propyl)piperidin-1-yl)propan-1-one] | – | 3.54 | – |
| – | CCCCCCCCCN(CCCCC(=O)OCCCC)CCC1CCN(C(=O)CN(CCCCCCCCC)CCN(CCCCCCCCC)CCCCCCCCC)CC1 [Compound 60, Butyl 5-((2-(1-(N-(2-(dinonylamino)ethyl)-N-nonylglycyl)piperidin-4-yl)ethyl)(nonyl)amino)pentanoate] | – | – | Liver/Spleen Ratio [2]: 15; Lipid/MC3 AUC [2]: 2.00 |
| 0.099 | CCCCCCCCCN(CCCCCCCC(=O)OC)CCN(CCCCCCCC(=O)OC)CC(=O)N1CCN(C(=O)CN(CCCCCCCCC)CCCCCCCCC)CC1 [Compound 48, Methyl 8-((2-(4-(dinonylglycyl)piperazin-1-yl)-2-oxoethyl)(2-((8-methoxy-8-oxooctyl)(nonyl)amino)ethyl)amino)octanoate] | 0.01 | – | – |
| – | CCCCCCCCCN(CCCCCC(=O)OCCC)CCC1CCN(C(=O)CN(CCCCCCCCC)CCN(CCCCCCCCC)CCCCCCCCC)CC1 [Compound 59, Propyl 6-((2-(1-(N-(2-(dinonylamino)ethyl)-N-nonylglycyl)piperidin-4-yl)ethyl)(nonyl)amino)hexanoate] | – | – | Liver/Spleen Ratio [2]: 5; Lipid/MC3 AUC [2]: 0.84 |
| – | CCCCCCCCCN(CCCOC(=O)CCCCC)CCCC1CCN(C(=O)CCN(CCCCCCCCC)CCN(CCCCCCCCC)CCCCCCCCC)CC1 [Compound 87, 3-((3-(1-(3-((2-(Dinonylamino)ethyl)(nonyl)amino)propanoyl)piperidin-4-yl)propyl)(nonyl)amino)propyl hexanoate] | – | 0.80 | – |
| 0.190 | CCCCCCCCCN(CCCCCCCCC)CCN(CCCCCCCCC)CC(=O)N1CC2CC1CN2C(=O)CN(CCCCCCCCC)CCCCCCCCC (stereo not shown) [Compound 42, 2-(Dinonylamino)-1-(5-(N-(2-(dinonylamino)ethyl)-N-nonylglycyl)-2,5-diazabicyclo[2.2.1]heptan-2-yl)ethan-1-one] | 3.99 | – | – |
| – | CCCCCCCCCN(CCCCCCCCC)CCN(CCCCCCCCC)CC(=O)N1CCC(CN(CCCCCCCCC)CCCCCCCCC)C1 (stereo not shown) [Compound 70, 2-((2-(Dinonylamino)ethyl)(nonyl)amino)-1-(3-((dinonylamino)methyl)pyrrolidin-1-yl)ethan-1-one] | – | 1.77 | – |
| 0.190 | CCCCCCCCCCCCCCN(CCCCCCCCCCCCCC)CC(=O)N1CCN(C(=O)CN(CCCCCCCCC)CCN(CCCCCCCCC)CCCCCCCCC)CC1 [Compound 51, 2-((2-(Dinonylamino)ethyl)(nonyl)amino)-1-(4-(ditetradecylglycyl)piperazin-1-yl)ethan-1-one] | 5.22 | – | – |
| 0.100 | CCCCCCCCCN(CCCCCCCCC)CCC(=O)N1CCN(C(=O)CCN(CCCCCCCCC)CCN(CCCCCCCCC)CCCCCCCCC)CC1 [Compound 52, 3-(Dinonylamino)-1-(4-(3-((2-(dinonylamino)ethyl)(nonyl)amino)propanoyl)piperazin-1-yl)propan-1-one] | 7.46 | – | – |
| 0.190 | CCCCCCCCCN(CCCCCCCCC)CCN(CCCCCCCCC)CC(=O)N1CCN(C(=O)CN(CCCCCCCCC)CCCCCCCC(=O)OC)CC1 [Compound 44, Methyl 8-((2-(4-(N-(2-(dinonylamino)ethyl)-N-nonylglycyl)piperazin-1-yl)-2-oxoethyl)(nonyl)amino)octanoate] | 0.82 | – | – |
